Holding throughout (assay type): in vivo, human
One series has as its system anti-D antibody. The series can be described thus: Anti-D antibody titer by indirect Coombs test in a patient treated with tacrolimus. As to the method:
(§1) The measurement is carried out by the indirect Coombs test. The indirect Coombs test is a test in which an anti-immunoglobulin antibody is added to a mixture of the blood serum of a patient and the blood of a healthy person to examine whether a hemagglutination reaction occurs (irregular antibody present in the blood serum is detected) (for the Coombs test, see, for example, Nissan Women's Journal Vol. 59, No. 10, N-617-N-623). The patient is a person having blood type A. The patient suffering from a blood type incompatible pregnancy with negative maternal Rho (D) and positive fetal Rho (D) was subjected to the following treatments. That is, at the time of the first pregnancy, anti-D immunoglobulin was not administered during pregnancy, sensitization was effected before delivery, and the anti-D antibody titer at the time of delivery was 8-fold. In week 39, they gave birth by emergency cesarean section due to placental abruption. […] The anti-D antibody titer obtained immediately after the establishment of pregnancy was 4-fold; however, the titer reached 16-fold in week 24 and reached 32-fold in week 26 (FIG. 1, upper part). After that, migration of fetal antigens to the parent's body via the placenta was assumed to further increase, and preparation of plasmapheresis and fetal blood transfusion was initiated in preparation for a rapid increase in the anti-D antibody titer. […] Furthermore, the blood flow velocity in the middle cerebral artery and the estimated body weight of the fetus were measured by fetal ultrasonography.

The subject of series [1] is infecundity considered to be caused by an abnormality in the immune system. The series can be described thus: Tacrolimus treatment of infecundity: embryo transplantation outcome. The following applies: tacrolimus 4 mg/day oral (2 mg morning, 2 mg evening); after five unsuccessful embryo transplantations. Here is the method:
Two years later, […] hoped to have a second child but suffered from infecundity and was treated for sterility by in vitro fertilization; however, since the treatment was unsuccessful after five embryo transplantations, a close examination of the immune system was conducted. At that time, a marked increase (24.9) in the Th1/Th2 (Th1 32.4, Th2 1.3) ratio was recognized, the illness was judged as infecundity considered to be caused by an abnormality in the immune system, and a tacrolimus treatment was selected.

Series [2] has as its system blood type incompatible pregnancy with negative maternal Rho (D) and positive fetal Rho (D). The series can be described thus: Treatment of blood type incompatible pregnancy with tacrolimus: fetal and neonatal outcome.
Description: as §1, with “The” for “The measurement is carried out by the indirect Coombs test. The indirect Coombs test is a test in which an anti-immunoglobulin antibody is added to a mixture of the blood serum of a patient and the blood of a healthy person to examine whether a hemagglutination reaction occurs (irregular antibody present in the blood serum is detected) (for the Coombs test, see, for example, Nissan Women's Journal Vol. 59, No. 10, N-617-N-623). The”

Series [3] in a line: Concentration of tacrolimus in the cord blood by chemiluminescence immunoassay (ECLIA). The note with it: cord blood at delivery, maternal dose 5 mg/day oral.
For a further series, the system named is Th1 cells. Kind of series: Analysis of Th1 cells and Th2 cells by flow cytometry. The note with it: maternal blood; week 28 of pregnancy; tacrolimus 4 mg/day oral. Here is the method:
For the purpose of evaluating the baseline value of the Th1/Th2 cell ratio, a total of 10 ml of venous blood was collected. Th1 cells and Th2 cells were determined by detecting the production of intracellular interferon (IFN)-γ and IL-4. Specific staining of lymphocytes was performed by incubating whole blood together with anti-CD4-PC5 or anti-CD8-PC5-conjugated monoclonal antibody (rAbs) (Beckman Coulter, Inc., Fullerton, Ca, USA). Red blood cells (RBCs) were removed by hemolysis (using FACS Lysing solution; Becton, Dickinson and Company, BD 134 Biosciences, Franklin Lake, N.J., USA), and lymphocytes were analyzed using flow cytometry (FACSCalibur; Becton, Dickinson and Company). Activated whole blood samples were surface-stained using anti-CD4-PC5-conjugate (Abs), and then RBC hemolysis and specific intracellular staining using FastImmune (trademark) IFN-γ-FITC/IL-4-PE (Becton, Dickinson and Company) were carried out in sequence according to the manufacturer's instructions for use. Th1 cells were defined as CD4^+ lymphocytes accompanied by intracellular IFN-γ but not by intracellular IL-4. Th2 cells were detected as CD4^+ lymphocytes accompanied by intracellular IL-4 but not by intracellular IFN-γ. The ratio of intracellular IFN-γ-positive Th cells with respect to intracellular IL-4-positive Th cells was expressed as the Th1/Th2 cell ratio.

The mark [4] stands for this setting: fetal ultrasonography, tacrolimus 4 then 5 mg/day oral.

Entries after “also recorded” stand apart in the source; their conditions may differ.

Regarding `C=CCC1/C=C(\C)CC(C)CC(OC)C2OC(O)(C(=O)C(=O)N3CCCCC3C(=O)OC(/C(C)=C/C3CCC(O)C(OC)C3)C(C)C(O)CC1=O)C(C)CC2OC` (centres unmarked) [tacrolimus, 17-Allyl-1,14-dihydroxy-12-[2-(4-hydroxy-3-methoxycyclohexyl)-1-methylvinyl]-23,25-dimethoxy-13,19,21,27-tetramethyl-11,28-dioxa-4-azatricyclo[22.3.1.04,9]octacos-18-ene-2,3,10,16-tetraone], the “anti-D antibody titer in the cord blood” value in the series on anti-D antibody (cord blood at delivery) is reported as “double”. The “course of anti-D antibody titer / anti-D antibody production” value in the series with anti-D antibody (maternal, after dose increase to 5 mg/day in week 28 of pregnancy) is “the titer did not further increase and was stabilized; also recorded: the expected increase in the anti-D antibody titer did not occur at all; also recorded: the production of anti-D antibody was also suppressed”. In addition, the anti-D antibody titer with anti-D antibody (maternal, after dose increase to 5 mg/day oral (week 28) until delivery) turned out to be 32 fold; in the series on anti-D antibody (maternal, immediately after the establishment of pregnancy, tacrolimus 4 mg/day oral), 4 fold; in the series with anti-D antibody (maternal, week 24 of pregnancy, tacrolimus 4 mg/day oral), 16 fold; with anti-D antibody (maternal, week 26 of pregnancy, tacrolimus 4 mg/day oral), 32 fold. Further, in series [1], the establishment of pregnancy result is recorded as “Pregnancy was established by a single embryo transplantation”. For the same compound, the “malformations and physical functions of the child” value in series [2] (child at birth, maternal tacrolimus during the entire pregnancy) is “no external malformations or visceral malformations and no problem with physical functions”. In series [2] (delivery on day 2 of week 37), the “birth weight of the child” value is given as 2834 g. Besides, the “fetal anemia (increased blood flow velocity in the middle cerebral artery)” value in series [2] (setting [4]) is “without observing any fetal anemia; also recorded: fetal anemia did not develop during the entire course of pregnancy”. For the same compound, the “growth of the fetus (estimated body weight)” value in series [2] (setting [4]) was “The body weight smoothly increased; also recorded: growth of the child occurred without any problem”. Further, in series [2] (tacrolimus 4 then 5 mg/day oral), the “maternal and fetal conditions / course of pregnancy” value was “stable without complications”. Moreover, the “concentration of tacrolimus in the cord blood” value in series [3] was “lower than or equal to the detection limit value”. Moreover, the Th1 cell population result with Th1 cells is “showed a tendency of increase again”.

The record behind these values is US20210228551A1, “THERAPEUTIC AGENT FOR HUMORAL IMMUNITY-RELATED DISEASES IN MATERNOFETAL RELATIONSHIP” (priority 2018, published 2021).
